Counter-ions that a name gives are not always drawn.
Legend:
human and animal plasma = assay: Determination of anticoagulatory activity: activated partial thromboplastin time (aPTT) in plasma; conditions: concentration of test substance which brings about a 1.5-fold extension of the aPTT; plasma species not given
Description: The anticoagulatory activity of the test substances is determined in vitro in human and animal plasma (for example mouse, rat, rabbit, pig and dog plasma). To this end, blood is drawn off in a mixing ratio of sodium citrate/blood of 1:9 using a 0.11 molar sodium citrate solution as receiver. Immediately after the blood has been drawn off, it is mixed thoroughly and centrifuged at about 4000 g for 15 minutes. The supernatant is pipetted off.
The activated partial thromboolastin time (aPTT) is determined in the presence of varying concentrations of test substance or the corresponding solvent using a commercial test kit (C. K. Prest from Diagnostica Stago). The test compounds are incubated with the plasma and the PTT reagent (cephalin, kaolin) at 37° C. for 3 minutes. Coagulation is then started by addition of a 25 mM aqueous calcium chloride solution, and the time when coagulation occurs is determined. The concentration of test substance which brings about a 1.5-fold extension of the aPTT is determined.

human factor XIa = biological target: T1, human factor XIa (Homo sapiens, UniProt P03951); assay: Measurement of FXIa inhibition (fluorogenic peptide substrate Boc-Glu(OBzl)-Ala-Arg-AMC); assay type: biochemical; conditions: factor XIa from Kordia, 15 min preincubation, 30 min at 22° C., fluorescence
T1 construct: purchased Kordia
How it was run: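 Released AMC fluorescence (360/460 nm) read after 30 min at 22 °C. The reaction was started with Boc-Glu(OBzl)-Ala-Arg-AMC (10 μM stock) after a 15 min preincubation of the enzyme (0.45 nM stock) with compound (final 50 μM to 0.00013 μM).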

T1 sequence (P03951 388-625 limits assumed): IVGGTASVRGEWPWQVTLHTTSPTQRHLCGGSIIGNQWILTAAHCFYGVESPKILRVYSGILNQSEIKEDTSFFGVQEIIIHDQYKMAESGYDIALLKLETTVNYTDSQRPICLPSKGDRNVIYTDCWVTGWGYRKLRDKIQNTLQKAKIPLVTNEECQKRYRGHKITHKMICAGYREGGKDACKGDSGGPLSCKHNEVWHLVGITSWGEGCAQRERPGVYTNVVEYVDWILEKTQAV
T1 sequence (P03951 19-387 partner limits assumed): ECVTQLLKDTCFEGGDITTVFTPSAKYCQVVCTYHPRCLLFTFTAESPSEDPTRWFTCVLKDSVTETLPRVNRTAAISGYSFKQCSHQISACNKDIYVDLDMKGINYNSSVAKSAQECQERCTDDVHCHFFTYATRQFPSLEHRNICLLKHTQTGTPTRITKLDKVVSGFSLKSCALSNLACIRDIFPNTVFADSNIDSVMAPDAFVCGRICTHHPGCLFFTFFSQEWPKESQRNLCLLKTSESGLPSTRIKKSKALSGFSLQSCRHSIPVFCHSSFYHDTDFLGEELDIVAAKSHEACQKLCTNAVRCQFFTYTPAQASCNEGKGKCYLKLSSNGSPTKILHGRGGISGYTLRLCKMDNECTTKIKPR

Structure (SMILES) | aPTT (human and animal plasma) | IC50 (human factor XIa)
Cc1cc(C(=O)N[C@H]2CC[C@H](N)CC2)ccc1-c1ccc(C[C@H](NC(=O)[C@H]2CC[C@H](CN)CC2)C(=O)Nc2ccc(-c3nn[nH]n3)cc2)cc1 [Example 34, N-(trans-4-Aminocyclohexyl)-4′-[(2S)-2-({[trans-4-(aminomethyl)cyclohexyl]carbonyl}amino)-3-oxo-3-{[4-(2H-tetrazol-5-yl)phenyl]amino}propyl]-2-methylbiphenyl-4-carboxamide hydrochloride] | 0.11 µmol/L | 1.4 nM
Cc1cc(C(=O)NCCCN(C)C)ccc1-c1ccc(C[C@H](NC(=O)[C@H]2CC[C@H](CN)CC2)C(=O)Nc2ccc(-c3nn[nH]n3)cc2)cc1 [Example 35, 4′-[(2S)-2-({[trans-4-(Aminomethyl)cyclohexyl]carbonyl}amino)-3-oxo-3-{[4-(2H-tetrazol-5-yl)phenyl]amino}propyl]-N-[3-(dimethylamino)propyl]-2-methylbiphenyl-4-carboxamide hydrochloride] | 0.11 µmol/L | 2.3 nM
Cc1cc(C(=O)NC2CCNCC2)ccc1-c1ccc(C[C@H](NC(=O)[C@H]2CC[C@H](CN)CC2)C(=O)Nc2ccc(-c3nn[nH]n3)cc2)cc1 [Example 36, 4′-[(2S)-2-({[trans-4-(Aminomethyl)cyclohexyl]carbonyl}amino)-3-oxo-3-{[4-(2H-tetrazol-5-yl)phenyl]amino}propyl]-2-methyl-N-(piperidin-4-yl)biphenyl-4-carboxamide] | 0.07 µmol/L | 1.7 nM
NC[C@H]1CC[C@H](C(=O)N[C@@H](Cc2ccc(-c3ccc(C(=O)NC4CCNCC4)cc3)cc2)C(=O)Nc2ccc(-c3nn[nH]n3)cc2)CC1 [Example 37, 4′-[(2S)-2-({[trans-4-(Aminomethyl)cyclohexyl]carbonyl}amino)-3-oxo-3-{[4-(2H-tetrazol-5-yl)phenyl]amino}propyl]-N-(piperidin-4-yl)biphenyl-4-carboxamide hydrochloride] | 0.12 µmol/L | 8.5 nM
CCN(CC)CCNC(=O)c1ccc(-c2ccc(C[C@H](NC(=O)[C@H]3CC[C@H](CN)CC3)C(=O)Nc3ccc(-c4nn[nH]n4)cc3)cc2)cc1 [Example 38, 4′-[(2S)-2-({[trans-4-(Aminomethyl)cyclohexyl]carbonyl}amino)-3-oxo-3-{[4-(2H-tetrazol-5-yl)phenyl]amino}propyl]-N-{2-[diethylamino]ethyl}biphenyl-4-carboxamide hydrochloride] | 0.42 µmol/L | 14 nM
NC[C@H]1CC[C@H](C(=O)N[C@@H](Cc2ccc(-c3ccc(C(=O)N[C@@H]4CCNC4)cc3)cc2)C(=O)Nc2ccc(-c3nn[nH]n3)cc2)CC1 [Example 39, 4′-[(2S)-2-({[trans-4-(Aminomethyl)cyclohexyl]carbonyl}amino)-3-oxo-3-{[4-(2H-tetrazol-5-yl)phenyl]amino}propyl]-N-[(3R)-pyrrolidin-3-yl]biphenyl-4-carboxamide hydrochloride] | 0.1 µmol/L | 9.8 nM
Cc1cc(C(=O)NC2CCN(C(C)C)CC2)ccc1-c1ccc(C[C@H](NC(=O)[C@H]2CC[C@H](CN)CC2)C(=O)Nc2ccc(-c3nn[nH]n3)cc2)cc1 [Example 40, 4′-[(2S)-2-({[trans-4-(Aminomethyl)cyclohexyl]carbonyl}amino)-3-oxo-3-{[4-(2H-tetrazol-5-yl)phenyl]amino}propyl]-N-(1-isopropylpiperidin-4-yl)-2-methylbiphenyl-4-carboxamide hydrochloride] | 0.11 µmol/L | 3.6 nM
Cc1cc(C(=O)NCC[N+](C)(C)C)ccc1-c1ccc(C[C@H](NC(=O)[C@H]2CC[C@H](CN)CC2)C(=O)Nc2ccc(-c3nn[nH]n3)cc2)cc1 [Example 41, 2-[({4′-[(2S)-2-({[trans-4-(Aminomethyl)cyclohexyl]carbonyl}amino)-3-oxo-3-({[4-(2H-tetrazol-5-yl)phenyl]amino}propyl]-2-methylbiphenyl-4-yl}carbonyl)amino]-N,N,N-trimethylethanaminium hydrochloride] | 0.18 µmol/L | 6 nM
Cc1cc(C(=O)NC2CCN(C)CC2)ccc1-c1ccc(C[C@H](NC(=O)[C@H]2CC[C@H](CN)CC2)C(=O)Nc2ccc(-c3nn[nH]n3)cc2)cc1 [Example 42, 4′-[(2S)-2-({[trans-4-(Aminomethyl)cyclohexyl]carbonyl}amino)-3-oxo-3-{[4-(2H-tetrazol-5-yl)phenyl]amino}propyl]-2-methyl-N-(1-methylpiperidin-4-yl)biphenyl-4-carboxamide hydrochloride] | 0.1 µmol/L | 3.6 nM
Cc1cc(C(=O)NC2C3CNCC32)ccc1-c1ccc(C[C@H](NC(=O)C2CCC(CN)CC2)C(=O)Nc2ccc(-c3nn[nH]n3)cc2)cc1 (stereo partly drawn) [Example 43, 4′-[(2S)-2-({[trans-4-(Aminomethyl)cyclohexyl]carbonyl}amino)-3-oxo-3-{[4-(2H-tetrazol-5-yl)phenyl]amino}propyl]-N-(3-azabicyclo[3.1.0]hex-6-yl)-2-methylbiphenyl-4-carboxamide hydrochloride] | 0.06 µmol/L | 3.3 nM
Cc1cc(C(=O)NC2CC3CCC(C2)N3C)ccc1-c1ccc(C[C@H](NC(=O)C2CCC(CN)CC2)C(=O)Nc2ccc(-c3nn[nH]n3)cc2)cc1 (stereo partly drawn) [Example 44, 4′-[(2S)-2-({[trans-4-(Aminomethyl)cyclohexyl]carbonyl}amino)-3-oxo-3-{[4-(2H-tetrazol-5-yl)phenyl]amino}propyl]-2-methyl-N-(8-methyl-8-azabicyclo[3.2.1]oct-3-yl)biphenyl-4-carboxamide hydrochloride] | 0.11 µmol/L | 5.7 nM
NC[C@H]1CC[C@H](C(=O)N[C@@H](Cc2ccc(-c3ccc(C(=O)NC4CCNCC4)c(F)c3)cc2)C(=O)Nc2ccc(-c3nn[nH]n3)cc2)CC1 [Example 45, 4′-[(2S)-2-({[trans-4-(Aminomethyl)cyclohexyl]carbonyl}amino)-3-oxo-3-{[4-(2H-tetrazol-5-yl)phenyl]amino}propyl]-3-fluoro-N-(piperidin-4-yl)biphenyl-4-carboxamide hydrochloride] | 0.14 µmol/L | 6.2 nM
Cc1cc(C(=O)NC2CCN(CC(F)(F)F)CC2)ccc1-c1ccc(C[C@H](NC(=O)[C@H]2CC[C@H](CN)CC2)C(=O)Nc2ccc(-c3nn[nH]n3)cc2)cc1 [Example 46, 4′-[(2S)-2-({[trans-4-(Aminomethyl)cyclohexyl]carbonyl}amino)-3-oxo-3-{[4-(2H-tetrazol-5-yl)phenyl]amino}propyl]-2-methyl-N-[1-(2,2,2-trifluoroethyl)piperidin-4-yl]biphenyl-4-carboxamide hydrochloride] | 0.22 µmol/L | 3.6 nM
NC[C@H]1CC[C@H](C(=O)N[C@@H](Cc2ccc(-c3ccc(C(=O)N4CCNCC4)cc3)cc2)C(=O)Nc2ccc(-c3nn[nH]n3)cc2)CC1 [Example 47, trans-4-(Aminomethyl)-N-[(2S)-1-oxo-3-[4′-(piperazin-1-ylcarbonyl)biphenyl-4-yl]-1-{[4-(2H-tetrazol-5-yl)phenyl]amino}propan-2-yl]cyclohexanecarboxamide trifluoroacetate] | 0.51 µmol/L | 16 nM
Cc1cc(C(=O)NC2CCNCC2)ccc1-c1ccc(C[C@H](NC(=O)[C@H]2CC[C@H](CN)CC2)C(=O)Nc2ccc(-c3nc(C(F)(F)F)n[nH]3)cc2)cc1 [Example 48, 4′-[(2S)-2-({[trans-4-(Aminomethyl)cyclohexyl]carbonyl}amino)-3-oxo-3-({4-[3-(trifluoromethyl)-1H-1,2,4-triazol-5-yl]phenyl}amino)propyl]-2-methyl-N-(piperidin-4-yl)biphenyl-4-carboxamide hydrochloride] | 0.1 µmol/L | 2.7 nM
Cc1cc(C(=O)NC2CCNCC2)ccc1-c1ccc(C[C@H](NC(=O)[C@H]2CC[C@H](CN)CC2)C(=O)Nc2ccc(-c3nnc(Cl)[nH]3)cc2)cc1 [Example 49, 4′-[(2S)-2-({[trans-4-(Aminomethyl)cyclohexyl]carbonyl}amino)-3-{[4-(3-chloro-4H-1,2,4-triazol-5-yl)phenyl]amino}-3-oxopropyl]-2-methyl-N-(piperidin-4-yl)biphenyl-4-carboxamide hydrochloride] | 0.08 µmol/L | 2.1 nM
Cc1nc2ccc(NC(=O)[C@H](Cc3ccc(-c4ccc(C(=O)NC5CCNCC5)cc4C)cc3)NC(=O)[C@H]3CC[C@H](CN)CC3)cc2[nH]1 [Example 50, 4′-{(2S)-2-({[trans-4-(Aminomethyl)cyclohexyl]carbonyl}amino)-3-[(2-methyl-1H-benzimidazol-6-yl)amino]-3-oxopropyl}-2-methyl-N-(piperidin-4-yl)biphenyl-4-carboxamide hydrochloride] | 0.16 µmol/L | 8.3 nM
Cc1cc(C(=O)NC2CCNCC2)ccc1-c1ccc(C[C@H](NC(=O)[C@H]2CC[C@H](CN)CC2)C(=O)Nc2ccc3[nH]c(-c4ccccn4)nc3c2)cc1 [Example 51, 4′-[(2S)-2-({[trans-4-(Aminomethyl)cyclohexyl]carbonyl}amino)-3-oxo-3-{[2-(pyridin-2-yl)-1H-benzimidazol-5-yl]amino}propyl]-2-methyl-N-(piperidin-4-yl)biphenyl-4-carboxamide hydrochloride] | 0.44 µmol/L | 11 nM

Source: US20160272617A1, “SUBSTITUTED PHENYLALANINE DERIVATIVES” (BAYER PHARMA AKTIENGESELLSCHAFT, priority 2013, published 2016)
